Measured values as given in US10435399B2, “HDAC6 inhibitory heterocyclic compound” (TAKEDA PHARMACEUTICAL COMPANY LIMITED, priority 2017, dated 2019).

target: T1, HDAC6 enzyme (Homo sapiens, UniProt Q9UBN7); experiment: HDAC6 enzyme inhibitory activity (HDAC-Glo I/II Assay kit); assay type: biochemical; conditions: 10 μM; wells without enzyme = 100% inhibition; read-out: HDAC6 inhibitory rate (%) (10 μM)
T1 construct: transducing full length HDAC6 gene into Sf-9 insect cells; GST; purchased SignalChem; host or cells: Sf-9 insect cells
T1 sequence (Q9UBN7 1-1215): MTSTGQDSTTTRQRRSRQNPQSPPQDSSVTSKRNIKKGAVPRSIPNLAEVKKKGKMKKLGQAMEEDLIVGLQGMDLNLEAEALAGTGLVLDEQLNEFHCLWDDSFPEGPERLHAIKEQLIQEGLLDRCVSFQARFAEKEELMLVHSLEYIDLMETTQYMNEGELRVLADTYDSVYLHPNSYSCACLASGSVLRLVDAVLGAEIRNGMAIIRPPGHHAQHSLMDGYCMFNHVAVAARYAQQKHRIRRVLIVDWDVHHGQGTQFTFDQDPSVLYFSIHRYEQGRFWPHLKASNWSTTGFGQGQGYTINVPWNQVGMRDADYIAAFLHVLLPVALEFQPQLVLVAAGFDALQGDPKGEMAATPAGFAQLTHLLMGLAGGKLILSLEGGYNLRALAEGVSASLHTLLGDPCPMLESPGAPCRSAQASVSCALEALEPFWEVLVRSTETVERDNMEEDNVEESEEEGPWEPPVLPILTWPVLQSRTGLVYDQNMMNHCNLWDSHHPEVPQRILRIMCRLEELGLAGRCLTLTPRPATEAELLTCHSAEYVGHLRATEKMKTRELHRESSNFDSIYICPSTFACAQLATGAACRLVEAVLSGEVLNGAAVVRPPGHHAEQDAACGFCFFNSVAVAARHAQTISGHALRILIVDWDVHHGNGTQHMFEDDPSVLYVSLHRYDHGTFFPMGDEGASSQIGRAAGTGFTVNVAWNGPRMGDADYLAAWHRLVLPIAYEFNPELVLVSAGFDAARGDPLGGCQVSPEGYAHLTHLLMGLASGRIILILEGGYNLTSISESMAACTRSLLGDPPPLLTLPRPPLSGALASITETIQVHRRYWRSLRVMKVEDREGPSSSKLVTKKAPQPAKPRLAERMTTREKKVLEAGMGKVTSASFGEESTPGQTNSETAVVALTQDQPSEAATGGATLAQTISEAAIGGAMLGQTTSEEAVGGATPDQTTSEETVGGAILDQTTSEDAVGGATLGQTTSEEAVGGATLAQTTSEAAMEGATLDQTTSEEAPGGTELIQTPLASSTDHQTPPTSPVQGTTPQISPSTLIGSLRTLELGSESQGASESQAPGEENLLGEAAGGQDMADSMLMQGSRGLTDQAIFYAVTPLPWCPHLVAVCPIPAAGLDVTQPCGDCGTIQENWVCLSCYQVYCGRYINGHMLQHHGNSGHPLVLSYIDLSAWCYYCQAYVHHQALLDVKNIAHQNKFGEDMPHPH
Summary of the method: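 Full-length human HDAC6 (GST-purified, Sf-9 expressed) preincubated with compound 60 min at room temperature in Tris-HCl pH 7.5 buffer with MgCl2, KCl, NaCl, glutathione, Tween-20. HDAC-Glo I/II substrate-developer then added, 20 min room temperature, luminescence read. Inhibition relative to no-enzyme wells as 100%.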

`O=C1c2cc(-c3nnc(C(F)F)o3)ccc2CN1c1ccc(F)cc1-c1cnn(C(F)F)c1` [Example 385, 6-(5-(difluoro-methyl)-1,3,4-oxadiazol-2-yl)-2-(2-(1-(difluoro-methyl)-1H-pyrazol-4-yl)-4-fluorophenyl) isoindolin-1-one] and `O=C1c2cc(-c3nnc(C(F)F)o3)ccc2CN1c1cccc(F)c1-c1cnn(C(F)F)c1` [Example 396, 6-(5-(difluoro-methyl)-1,3,4-oxadiazol-2-yl)-2-(2-(1-(difluoromethyl)-1H-pyrazol-4-yl)-3-fluorophenyl) isoindolin-1-one] are the same in inhibition at 10 µM: 101% for the first, 101% for the second.

First: O=C1c2cc(-c3nnc(C(F)F)o3)ccc2CN1c1ccc(F)cc1-c1cccc(F)c1 [Example 386, 2-(3′,5-difluoro-biphenyl-2-yl)-6-(5-(difluoro-methyl)-1,3,4-oxadiazol-2-yl) isoindolin-1-one]
Second: O=C1c2cc(-c3nnc(C(F)F)o3)cc(F)c2CN1c1ccccc1-c1cccc(F)c1 [Example 393, 6-(5-(difluoro-methyl)-1,3,4-oxadiazol-2-yl)-4-fluoro-2-(3′-fluorobiphenyl-2-yl)isoindolin-1-one]
The inhibition at 10 µM of the first is higher: 101% for the first, 99% for the second.

First: O=C1c2cc(-c3nnc(C(F)F)o3)ccc2CN1c1cccnc1-c1cnn(C(F)F)c1 [Example 387, 6-(5-(difluoro-methyl)-1,3,4-oxadiazol-2-yl)-2-(2-(1-(difluoro-methyl)-1H-pyrazol-4-yl)pyridin-3-yl) isoindolin-1-one]
Second: N#Cc1cccc(-c2ncccc2N2Cc3ccc(-c4nnc(C(F)F)o4)cc3C2=O)c1 [Example 391, 3-(3-(6-(5-(difluoromethyl)-1,3,4-oxadiazol-2-yl)-1-oxo-1,3-dihydro-2H-isoindol-2-yl)pyridin-2-yl) benzonitrile]
The inhibition at 10 µM of the first is higher: 101% for the first, 100% for the second.

Compared with `Cn1nc(C(F)(F)F)cc1-c1cc(F)ccc1N1Cc2c(F)cc(-c3nnc(C(F)F)o3)cc2C1=O` [Example 388, 6-(5-(difluoro-methyl)-1,3,4-oxadiazol-2-yl)-4-fluoro-2-(4-fluoro-2-(1-methyl-3-(trifluoro-methyl)-1H-pyrazol-5-yl)phenyl) isoindolin-1-one], `Cn1nc(C(F)(F)F)cc1-c1ccccc1N1Cc2c(F)cc(-c3nnc(C(F)F)o3)cc2C1=O` [Example 394, 6-(5-(difluoro-methyl)-1,3,4-oxadiazol-2-yl)-4-fluoro-2-(2-(1-methyl-3-(trifluoro-methyl)-1H-pyrazol-5-yl)phenyl) isoindolin-1-one] is lower in inhibition at 10 µM: 101% for the first, 99% for the second.

First: Cn1nc(C(F)(F)F)cc1-c1cc(F)ccc1N1Cc2ccc(-c3nnc(C(F)F)o3)cc2C1=O [Example 389, 6-(5-(difluoro-methyl)-1,3,4-oxadiazol-2-yl)-2-(4-fluoro-2-(1-methyl-3-(trifluoro-methyl)-1H-pyrazol-5-yl)phenyl) isoindolin-1-one]
Second: O=C1c2cc(-c3nnc(C(F)F)o3)ccc2CN1c1cccc(F)c1-c1cccc(Cl)c1 [Example 397, 2-(3′-chloro-6-fluorobiphenyl-2-yl)-6-(5-(difluoro-methyl)-1,3,4-oxadiazol-2-yl) isoindolin-1-one]
The inhibition at 10 µM of the first is higher: 101% for the first, 100% for the second.

Compared with `O=C1c2cc(-c3nnc(C(F)F)o3)cc(F)c2CN1c1ccccc1-c1cnn(C(F)F)c1` [Example 390, 6-(5-(difluoro-methyl)-1,3,4-oxadiazol-2-yl)-2-(2-(1-(difluoro-methyl)-1H-pyrazol-4-yl)phenyl)-4-fluoroisoindolin-1-one], `Cn1cc(-c2ccccc2N2Cc3c(F)cc(-c4nnc(C(F)F)o4)cc3C2=O)cn1` [Example 392, 6-(5-(difluoro-methyl)-1,3,4-oxadiazol-2-yl)-4-fluoro-2-(2-(1-methyl-1H-pyrazol-4-yl)phenyl) isoindolin-1-one] is lower in inhibition at 10 µM: 100% for the first, 99% for the second.

`O=C1c2cc(-c3nnc(C(F)F)o3)cnc2CN1Cc1cccc(OC(F)F)c1` [Example 395, 6-(3-(difluoro-methoxy)benzyl)-3-(5-(difluoro-methyl)-1,3,4-oxadiazol-2-yl)-6,7-dihydro-5H-pyrrolo [3,4-b]pyridin-5-one] showed an inhibition at 10 µM of 99%.
